Target: T1, PhXyl (extracellular β-xylosidase) (Pseudozyma hubeiensis, UniProt R9NZV8)
T1 construct: gene PHSY_001848; native extracellular enzyme purified from culture supernatant
T1 sequence (R9NZV8 24-873): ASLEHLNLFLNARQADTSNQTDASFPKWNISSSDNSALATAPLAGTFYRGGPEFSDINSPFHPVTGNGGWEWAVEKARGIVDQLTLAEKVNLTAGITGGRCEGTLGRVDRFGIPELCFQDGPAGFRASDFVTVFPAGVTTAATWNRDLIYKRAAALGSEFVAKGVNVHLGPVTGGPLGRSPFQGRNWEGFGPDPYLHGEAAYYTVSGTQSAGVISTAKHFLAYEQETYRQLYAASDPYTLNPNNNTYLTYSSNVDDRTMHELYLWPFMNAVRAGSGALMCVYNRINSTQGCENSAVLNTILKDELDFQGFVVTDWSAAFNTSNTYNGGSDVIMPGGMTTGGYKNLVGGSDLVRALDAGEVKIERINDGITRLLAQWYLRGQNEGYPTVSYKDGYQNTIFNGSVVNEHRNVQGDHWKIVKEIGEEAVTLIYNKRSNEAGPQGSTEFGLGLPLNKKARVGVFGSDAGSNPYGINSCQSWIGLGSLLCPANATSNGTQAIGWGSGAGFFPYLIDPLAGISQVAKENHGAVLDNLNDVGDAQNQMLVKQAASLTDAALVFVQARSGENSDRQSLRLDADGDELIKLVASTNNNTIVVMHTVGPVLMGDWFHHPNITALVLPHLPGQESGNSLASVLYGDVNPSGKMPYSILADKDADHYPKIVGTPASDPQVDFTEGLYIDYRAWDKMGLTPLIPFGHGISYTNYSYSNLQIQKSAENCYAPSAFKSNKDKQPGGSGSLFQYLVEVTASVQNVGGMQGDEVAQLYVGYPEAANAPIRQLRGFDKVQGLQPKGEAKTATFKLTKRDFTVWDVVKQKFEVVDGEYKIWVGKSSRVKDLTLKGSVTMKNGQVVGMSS
Experiment: inhibition of pNPX hydrolysis
Assay type: biochemical
Conditions: read-out: % activity at 75 mM

activity at 75000 µM: 50%
SMILES: OC1OC[C@@H](O)[C@H](O)[C@H]1O (stereo partly shown) [xylose]
